# Test results taken from PubChem BioAssay AID1963967 (Molecular Pharmacology Branch, DTP, NCI, 2024).
# Tested on: 855422-203-R-J1-PDC spheroids with HUVEC/MSC, viability
# Test: Anticancer human tumor 855422-203-R-J1-PDC patient-derived bladder carcinoma cell line growth inhibition [PI3K]
# Conditions: for IC50: curve of first compound; for viability, T/C: stronger effect = lower value
# Method in brief: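 Tumor cells were combined with HUVEC and MSCs into spheroids, then dosed with PI3K-inhibitor combinations over half-log ranges capped near clinical Cmax or 10 microM.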
# [1] = second compound 0.0316 µM, first compound 0.0316 µM
# [2] = second compound 0.0316 µM, first compound 0.1 µM
# [3] = second compound 0.0316 µM, first compound 0.316 µM
# [4] = second compound 0.0316 µM, first compound 1 µM
# [5] = second compound 0.1 µM, first compound 0.0316 µM
# [6] = second compound 0.1 µM, first compound 0.1 µM
# [7] = second compound 0.1 µM, first compound 0.316 µM
# [8] = second compound 0.1 µM, first compound 1 µM
# [9] = second compound 0.316 µM, first compound 0.0316 µM
# [10] = second compound 0.316 µM, first compound 0.1 µM
# [11] = second compound 0.316 µM, first compound 0.316 µM
# [12] = second compound 0.316 µM, first compound 1 µM
# [13] = second compound 1 µM, first compound 0.0316 µM
# [14] = second compound 1 µM, first compound 0.1 µM
# [15] = second compound 1 µM, first compound 0.316 µM
# [16] = second compound 1 µM, first compound 1 µM
# [17] = second compound 3.16 µM, first compound 0.0316 µM
# [18] = second compound 3.16 µM, first compound 0.1 µM
# [19] = second compound 3.16 µM, first compound 0.316 µM
# [20] = second compound 3.16 µM, first compound 1 µM
# [21] = second compound 10 µM, first compound 0.0316 µM
# [22] = second compound 10 µM, first compound 0.1 µM
# [23] = second compound 10 µM, first compound 0.316 µM
# [24] = second compound 10 µM, first compound 1 µM
# 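Further: agents incubated with spheroids for one week before read-out.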
# 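Wherever viability, T/C is given: 100% = DMSO vehicle-treated control wells.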
smiles,measurement,setting,value
CCN1CCN(Cc2ccc(Nc3ncc(F)c(-c4cc(F)c5nc(C)n(C(C)C)c5c4)n3)nc2)CC1 + Cc1nc(NC(=O)N2CCCC2C(N)=O)sc1-c1ccnc(C(C)(C)C(F)(F)F)c1,IC50,second compound 0.0316 µM,558 nM
same,IC50,second compound 0.1 µM,816 nM
same,IC50,second compound 0.316 µM,141 nM
same,IC50,second compound 1 µM,12 nM
same,IC50,second compound 3.16 µM,< 3.16 nM
same,IC50,second compound 10 µM,< 3.16 nM
same,"viability, T/C","second compound 0.0316 µM, first compound 0.00316 µM",102%
same,"viability, T/C","second compound 0.0316 µM, first compound 0.01 µM",80.5%
same,"viability, T/C",[1],97.1%
same,"viability, T/C",[2],70.4%
same,"viability, T/C",[3],60.1%
same,"viability, T/C",[4],40.6%
same,"viability, T/C","second compound 0.1 µM, first compound 0.00316 µM",99.9%
same,"viability, T/C","second compound 0.1 µM, first compound 0.01 µM",90.3%
same,"viability, T/C",[5],86%
same,"viability, T/C",[6],67.7%
same,"viability, T/C",[7],60.6%
same,"viability, T/C",[8],47.7%
same,"viability, T/C","second compound 0.316 µM, first compound 0.00316 µM",80.3%
same,"viability, T/C","second compound 0.316 µM, first compound 0.01 µM",79.7%
same,"viability, T/C",[9],65.1%
same,"viability, T/C",[10],54.9%
same,"viability, T/C",[11],40.4%
same,"viability, T/C",[12],28.2%
same,"viability, T/C","second compound 1 µM, first compound 0.00316 µM",57.2%
same,"viability, T/C","second compound 1 µM, first compound 0.01 µM",56.2%
same,"viability, T/C",[13],35.2%
same,"viability, T/C",[14],34.7%
same,"viability, T/C",[15],22%
same,"viability, T/C",[16],20.2%
same,"viability, T/C","second compound 3.16 µM, first compound 0.00316 µM",37.1%
same,"viability, T/C","second compound 3.16 µM, first compound 0.01 µM",36.4%
same,"viability, T/C",[17],20.3%
same,"viability, T/C",[18],18.8%
same,"viability, T/C",[19],15.4%
same,"viability, T/C",[20],16.1%
same,"viability, T/C","second compound 10 µM, first compound 0.00316 µM",18.5%
same,"viability, T/C","second compound 10 µM, first compound 0.01 µM",12.4%
same,"viability, T/C",[21],13.6%
same,"viability, T/C",[22],12.1%
same,"viability, T/C",[23],9.73%
same,"viability, T/C",[24],11.2%
Cn1cnc2c(F)c(Nc3ccc(Br)cc3Cl)c(C(=O)NOCCO)cc21 + CC(Nc1ccc2c(c1)OCCn1cc(N3C(=O)OCC3C(F)F)nc1-2)C(N)=O,IC50,second compound 0.00316 µM,2280 nM
same,IC50,second compound 0.01 µM,2150 nM
same,IC50,second compound 0.0316 µM,1870 nM
same,IC50,second compound 0.1 µM,769 nM
same,IC50,second compound 0.316 µM,< 9.49 nM
same,IC50,second compound 1 µM,< 9.49 nM
same,"viability, T/C","second compound 0.00316 µM, first compound 0.00949 µM",91.7%
same,"viability, T/C","second compound 0.00316 µM, first compound 0.03 µM",83.8%
same,"viability, T/C","second compound 0.00316 µM, first compound 0.0949 µM",104%
same,"viability, T/C","second compound 0.00316 µM, first compound 0.3 µM",83.2%
same,"viability, T/C","second compound 0.00316 µM, first compound 0.949 µM",82.5%
same,"viability, T/C","second compound 0.00316 µM, first compound 3 µM",39.8%
same,"viability, T/C","second compound 0.01 µM, first compound 0.00949 µM",95.9%
same,"viability, T/C","second compound 0.01 µM, first compound 0.03 µM",89.1%
same,"viability, T/C","second compound 0.01 µM, first compound 0.0949 µM",97.7%
same,"viability, T/C","second compound 0.01 µM, first compound 0.3 µM",81.4%
same,"viability, T/C","second compound 0.01 µM, first compound 0.949 µM",80.9%
same,"viability, T/C","second compound 0.01 µM, first compound 3 µM",37.9%
same,"viability, T/C","second compound 0.0316 µM, first compound 0.00949 µM",81%
same,"viability, T/C","second compound 0.0316 µM, first compound 0.03 µM",83.4%
same,"viability, T/C","second compound 0.0316 µM, first compound 0.0949 µM",91.5%
same,"viability, T/C","second compound 0.0316 µM, first compound 0.3 µM",92.3%
same,"viability, T/C","second compound 0.0316 µM, first compound 0.949 µM",75%
same,"viability, T/C","second compound 0.0316 µM, first compound 3 µM",32.6%
same,"viability, T/C","second compound 0.1 µM, first compound 0.00949 µM",64.9%
same,"viability, T/C","second compound 0.1 µM, first compound 0.03 µM",67.1%
same,"viability, T/C","second compound 0.1 µM, first compound 0.0949 µM",67.3%
same,"viability, T/C","second compound 0.1 µM, first compound 0.3 µM",71.3%
same,"viability, T/C","second compound 0.1 µM, first compound 0.949 µM",46%
same,"viability, T/C","second compound 0.1 µM, first compound 3 µM",22.2%
same,"viability, T/C","second compound 0.316 µM, first compound 0.00949 µM",47.6%
same,"viability, T/C","second compound 0.316 µM, first compound 0.03 µM",45.7%
same,"viability, T/C","second compound 0.316 µM, first compound 0.0949 µM",47.3%
same,"viability, T/C","second compound 0.316 µM, first compound 0.3 µM",38.3%
same,"viability, T/C","second compound 0.316 µM, first compound 0.949 µM",28.6%
same,"viability, T/C","second compound 0.316 µM, first compound 3 µM",9.16%
same,"viability, T/C","second compound 1 µM, first compound 0.00949 µM",30.4%
same,"viability, T/C","second compound 1 µM, first compound 0.03 µM",28.1%
same,"viability, T/C","second compound 1 µM, first compound 0.0949 µM",25.3%
same,"viability, T/C","second compound 1 µM, first compound 0.3 µM",21.3%
same,"viability, T/C","second compound 1 µM, first compound 0.949 µM",16.1%
same,"viability, T/C","second compound 1 µM, first compound 3 µM",4.67%
CC1(C)CCC(Nc2ncc(C(F)(F)F)c(-c3c[nH]c4c(P(C)(C)=O)c(C#N)ccc34)n2)CN1 (stereo unspecified) + Cc1nc(NC(=O)N2CCCC2C(N)=O)sc1-c1ccnc(C(C)(C)C(F)(F)F)c1,IC50,second compound 0.0316 µM,< 31.6 nM
same,IC50,second compound 0.1 µM,< 31.6 nM
same,IC50,second compound 0.316 µM,< 31.6 nM
same,IC50,second compound 1 µM,< 31.6 nM
same,IC50,second compound 3.16 µM,< 31.6 nM
same,IC50,second compound 10 µM,< 31.6 nM
same,"viability, T/C",[1],27%
same,"viability, T/C",[2],25.1%
same,"viability, T/C",[3],25.5%
same,"viability, T/C",[4],29.4%
same,"viability, T/C","second compound 0.0316 µM, first compound 3.16 µM",26.9%
same,"viability, T/C","second compound 0.0316 µM, first compound 10 µM",7.04%
same,"viability, T/C",[5],26%
same,"viability, T/C",[6],23.9%
same,"viability, T/C",[7],25%
same,"viability, T/C",[8],26.7%
same,"viability, T/C","second compound 0.1 µM, first compound 3.16 µM",28%
same,"viability, T/C","second compound 0.1 µM, first compound 10 µM",7.41%
same,"viability, T/C",[9],22.5%
same,"viability, T/C",[10],23%
same,"viability, T/C",[11],25%
same,"viability, T/C",[12],22%
same,"viability, T/C","second compound 0.316 µM, first compound 3.16 µM",18.5%
same,"viability, T/C","second compound 0.316 µM, first compound 10 µM",5.22%
same,"viability, T/C",[13],20.2%
same,"viability, T/C",[14],20.2%
same,"viability, T/C",[15],18.7%
same,"viability, T/C",[16],19.6%
same,"viability, T/C","second compound 1 µM, first compound 3.16 µM",17.5%
same,"viability, T/C","second compound 1 µM, first compound 10 µM",2.99%
same,"viability, T/C",[17],16.3%
same,"viability, T/C",[18],15.4%
same,"viability, T/C",[19],13.3%
same,"viability, T/C",[20],12.9%
same,"viability, T/C","second compound 3.16 µM, first compound 3.16 µM",10.8%
same,"viability, T/C","second compound 3.16 µM, first compound 10 µM",0.7%
same,"viability, T/C",[21],11.8%
same,"viability, T/C",[22],10.2%
same,"viability, T/C",[23],8.26%
same,"viability, T/C",[24],8.63%
same,"viability, T/C","second compound 10 µM, first compound 3.16 µM",6.11%
same,"viability, T/C","second compound 10 µM, first compound 10 µM",0.26%
